Experimental data taken from US9617237B2, “Partially saturated tricyclic compounds and methods of making and using same” (Zafgen, Inc., priority 2011, dated 2017).

Target: T1, recombinant human MetAP2 (Homo sapiens, UniProt P50579)
T1 construct: made in house; host or cells: Sf9 insect cells
Assay: Inhibition of recombinant human MetAP2 activity (fluorescence, MAS substrate, amino acid oxidase/Amplex red)
Assay type: biochemical
Settings: manganese enzyme; 0.75 mM Methionine-Alanine-Serine (MAS) substrate; 30 minutes at 25° C.; pH 7.5; 1% DMSO
Experimental: Compounds are tested for their capacity to inhibit recombinant human MetAP2 activity using the following assay.
Human recombinant MetAP2 expressed in Sf9 cells followed by affinity purification and EDTA treatment to remove endogenous active site cation was dialysed against MnCl2 to produce the manganese enzyme used in the assay. The assay was carried out for 30 minutes at 25° C. in 50 mM HEPES buffer containing 100 mM NaCl, pH 7.5 the presence of 0.75 mM Methionine-Alanine-Serine (MAS) substrate and 50 μg/ml amino acid oxidase using a dilution of purified MetAP2 giving >3-fold signal: noise. Cleavage of the substrate by MetAP2 and oxidation of free methionine by amino acid oxidase was detected and quantified using fluorescence generated by Amplex red (10-acetyl-3,7-dihydroxyphenoxazine) in combination with horseradish peroxidase which detects H2O2 released during the oxidation step. The fluorescent signal was detected using a multiwell fluorimeter. Compounds were diluted in DMSO prior to addition to assay buffer, the final DMSO concentration in the assay being 1%.
IC50 values are calculated using the XLfit software package (version 2.0.5).

T1 sequence (P50579 whole entry): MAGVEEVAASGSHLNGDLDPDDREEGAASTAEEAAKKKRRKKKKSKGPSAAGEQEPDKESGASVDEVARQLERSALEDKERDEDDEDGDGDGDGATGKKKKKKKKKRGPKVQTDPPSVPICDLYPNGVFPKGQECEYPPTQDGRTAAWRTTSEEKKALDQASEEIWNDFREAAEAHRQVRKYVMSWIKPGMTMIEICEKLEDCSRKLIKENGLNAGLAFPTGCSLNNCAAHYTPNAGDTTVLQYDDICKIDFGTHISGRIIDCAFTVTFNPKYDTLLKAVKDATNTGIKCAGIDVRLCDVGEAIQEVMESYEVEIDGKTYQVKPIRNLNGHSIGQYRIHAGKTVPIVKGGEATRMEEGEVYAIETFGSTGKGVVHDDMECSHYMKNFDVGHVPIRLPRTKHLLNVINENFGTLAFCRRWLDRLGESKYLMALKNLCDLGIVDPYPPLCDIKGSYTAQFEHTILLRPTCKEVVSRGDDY

| SMILES | IC50 |
| --- | --- |
| CCN1CCC(Cc2cc(F)ccc2S(=O)(=O)Nc2ccc3c(c2C(=O)O)OC[C@@H]2C[C@H]32)CC1 (racemic) [(1aRS,7bSR)-5-[2-(1-Ethylpiperidin-4-ylmethyl)-4-fluoro-benzenesulfonylamino]-1,1a,2,7b-tetrahydrocyclopropa-[c]chromene-4-carboxylic acid] | < 50 nM |
| CCN1CCC[C@@H]1C(=O)NCc1cc(F)ccc1S(=O)(=O)Nc1ccc2c(c1C(=O)O)OC[C@@H]1C[C@H]21 (mixture of isomers) [(1aRS,7bSR)-5-(2-{[((R)-1-Ethylpyrrolidine-2-yl)carbonyl-amino]methyl}-4-fluorobenzenesulfonylamino)-1,1a,2,7b-tetrahydrocyclopropa[c]chromene-4-carboxylic acid] | 50 to 500 nM |
| CCN(CC)C/C=C\c1cc(F)ccc1S(=O)(=O)Nc1ccc2c(c1C(=O)O)OC[C@H]1OCC[C@@H]21 (racemic) [Cis-(3aRS,9bRS)-7-[2-((Z)-3-Diethylaminoprop-1-enyl)-4-fluoro-benzenesulfonylamino]-1,3a,4,9b-tetrahydro-2H-furo[2,3-c]chromene-6-carboxylic acid] | < 50 nM |
| O=C(O)c1c(NS(=O)(=O)c2ccc(F)cc2CCN2CCCC2)ccc2c1OC[C@@H]1C[C@H]21 (racemic) [(1aRS,7bSR)-5-{2-[2-(Pyrrolidin-1-yl)-ethyl]-4-fluorobenzene-sulfonylamino}-1,1a,2,7b-tetrahydrocyclopropa[c]chromene-4-carboxylic acid] | 50 to 500 nM |
| CCN(CC)C/C=C\c1cc(F)ccc1S(=O)(=O)Nc1ccc2c(c1C(=O)O)OCC1C2C1(F)F (racemic) [(1aRS,7bSR)-5-[2-((Z)-3-Diethylaminoprop-1-enyl)-4-fluorobenzene-sulfonylamino]-1,1-difluoro-1,1a,2,7b-tetrahydrocyclopropa[c]chromene-4-carboxylic acid] | < 50 nM |
| CCN1CC[C@H](NC(=O)Cc2cc(F)ccc2S(=O)(=O)Nc2ccc3c(c2C(=O)O)OC[C@@H]2C[C@H]32)C1 (mixture of isomers) [(1aRS,7bSR)-5-{2-[((S)-1-Ethylpyrrolidin-3-ylcarbamoyl)-methyl]-4-fluoro-benzenesulfonyl-amino}-1,1a,2,7b-tetrahydrocyclopropa-[c]chromene-4-carboxylic acid] | 50 to 500 nM |
| CCNC/C=C\c1cc(F)ccc1S(=O)(=O)Nc1ccc2c(c1C(=O)O)OC[C@@H]1C[C@H]21 (single isomer, unassigned) [(1aRS,7bSR)-5-[2((Z)-3-ethylaminoprop-1-enyl)-4-fluorobenzenesulfonylamino]-1,1a,2,7b-tetrahydrocyclopropa[c]chromene-4-carboxylic acid] | < 50 nM |
| O=C(O)c1c(NS(=O)(=O)c2ccc(F)cc2CCCN2CCCC2)ccc2c1OC[C@H]1OCC[C@@H]21 (racemic) [Cis-(3aRS,9bRS)-7-[2-(3-{Pyrrolidin-1-yl}propyl)-4-fluorobenzene-sulfonylamino]-1,3a,4,9b-tetrahydro-2H-furo[2,3-c]chromene-6-carboxylic acid] | < 50 nM |
| CCN(CC)C/C=C\c1cc(F)ccc1S(=O)(=O)Nc1ccc2c(c1C(=O)O)OCC1CC21 (stereo not drawn) [5-[2-((Z)-3-Diethylaminoprop-1-enyl)-4-fluorobenzenesulfonyl-amino]-1,1a,2,7b-tetrahydrocyclopropa[c]chromene-4-carboxylic acid] | < 50 nM |
| CCN1CC[C@@H](Cc2cc(F)ccc2S(=O)(=O)Nc2ccc3c(c2C(=O)O)OC[C@@H]2C[C@H]32)C1 (single isomer, unassigned) | < 50 nM |
| CCN1CC[C@@H](Nc2ccccc2S(=O)(=O)Nc2ccc3c(c2C(=O)O)OC[C@@H]2C[C@H]32)C1 (mixture of isomers) [(1aRS,7bSR)-5-{2-[((R)-1-Ethylpyrrolidin-3-yl)amino]-benzenesulfonylamino}-1,1a,2,7b-tetrahydrocyclopropa-[c]chromene-4-carboxylic acid] | 50 to 500 nM |
| CCNC/C=C\c1cc(F)ccc1S(=O)(=O)Nc1ccc2c(c1C(=O)O)OC[C@@H]1C[C@H]21 (racemic) [(1aRS,7bSR)-5-[2((Z)-3-Ethylaminoprop-1-enyl)-4-fluoro-benzenesulfonylamino]-1,1a,2,7b-tetrahydrocyclopropa-[c]chromene-4-carboxylic acid] | < 50 nM |
| CCN1CC[C@@H](CNc2ccccc2S(=O)(=O)Nc2ccc3c(c2C(=O)O)OC[C@@H]2C[C@H]32)C1 (mixture of isomers) [(1aRS,7bSR)-5-{2-[((S)-1-Ethylpyrrolidin-3-ylmethyl)amino]-benzenesulfonylamino}-1,1a,2,7b-tetrahydrocyclopropa-[c]chromene-4-carboxylic acid] | 50 to 500 nM |
| CCN(CC)CCCc1cc(F)ccc1S(=O)(=O)Nc1ccc2c(c1C(=O)O)OC[C@@H]1C[C@H]21 [(1aR,7bS)-5-[2-(3-Diethylaminopropyl)-4-fluorobenzenesulfonyl-amino]-1,1a,2,7b-tetrahydrocyclopropa[c]chromene-4-carboxylic acid] | < 50 nM |
| CCN1CC[C@@H](OCc2cc(F)ccc2S(=O)(=O)Nc2ccc3c(c2C(=O)O)OC[C@@H]2C[C@H]32)C1 [(1aR,7bS)-5-[2-((R)-1-Ethylpyrrolidin-3-yloxymethyl)-4-fluoro-benzenesulfonylamino]-1,1a,2,7b-tetrahydrocyclopropa-[c]chromene-4-carboxylic acid] | 50 to 500 nM |
| CCN1CCN(Cc2cc(F)ccc2S(=O)(=O)Nc2ccc3c(c2C(=O)O)OC[C@@H]2C[C@H]32)C(=O)C1 (racemic) [(1aRS,7bSR)-5-[2-(4-Ethyl-2-oxopiperazin-1-ylmethyl)-4-fluorobenzene-sulfonylamino]-1,1a,2,7b-tetrahydrocyclopropa-[c]chromene-4-carboxylic acid] | 50 to 500 nM |
| CN(C)CCCCNc1cc(F)ccc1S(=O)(=O)Nc1ccc2c(c1C(=O)O)OC[C@@H]1C[C@H]21 (racemic) [(1aRS,7bSR)-5-[2-(4-Dimethylaminobutylamino)-4-fluoro-benzenesulfonyl-amino]-1,1a,2,7b-tetrahydrocyclopropa-[c]chromene-4-carboxylic acid] | 50 to 500 nM |
| O=C(O)c1c(NS(=O)(=O)c2ccccc2)ccc2c1OC[C@H]1OCC[C@@H]21 (racemic) [Cis-(3aRS,9bRS)-7-(Benzenesulfonylamino)-1,3a,4,9b-tetrahydro-2H-furo[2,3-c]chromene-6-carboxylic acid] | 50 to 500 nM |
| CCN1CC[C@@H](NCCc2cc(F)ccc2S(=O)(=O)Nc2ccc3c(c2C(=O)O)OC[C@@H]2C[C@H]32)C1 (mixture of isomers) [(1aRS,7bSR)-5-{2-[2-((R)-1-Ethylpyrrolidin-3-ylamino)ethyl]-4-fluoro-benzenesulfonylamino}-1,1a,2,7b-tetrahydrocyclopropa-[c]chromene-4-carboxylic acid] | 50 to 500 nM |
| CCN(CC)CCCCc1cc(F)ccc1S(=O)(=O)Nc1ccc2c(c1C(=O)O)OCC1CC21 (stereo not drawn) [(1aRS,7bSR)-5-[2((Z)-4-Diethylaminobutyl)-4-fluorobenzenesulfonylamino]-1,1a,2,7b-tetrahydrocyclopropa[c]chromene-4-carboxylic acid] | 50 to 500 nM |
| CCN1CC[C@H](Cc2cc(F)ccc2S(=O)(=O)Nc2ccc3c(c2C(=O)O)OC[C@@H]2C[C@H]32)C1 (mixture of isomers) [(1aRS,7bSR)-5-[2-((S)-1-Ethyl-pyrrolidin-3-ylmethyl)-4-fluorobenzenesulfonyl-amino]-1,1a,2,7b-tetrahydrocyclopropa[c]chromene-4-carboxylic acid] | 50 to 500 nM |
